These results are taken from patent publication US20080306118A1, “Process for the crystallization of (R) - or (S) - Lansoprazole” (Takeda Pharmaceutical Company Limited, priority 2000, published 2008).

A short description of the series: Stability test (relationship between melting start temperature and stability) of lansoprazole enantiomer crystals. Format: physicochemical. To be noted: for appearance after stability tests (FIG. 1): 40° C. 2 weeks, 50° C. 2 weeks and 60° C. 2 weeks, compared with before test; for 60° C. one month residual ratio: crystal, stability test at 60° C. for one month. The protocol: Stability Test (Relationship Between Melting Start Temperature and Stability)
Various (R)-lansoprazole crystals obtained in the above-mentioned Reference Examples and Examples were subjected to a stability test at 60° C. for one month.
The crystal of (R)-lansoprazole was subjected to a 40° C. one month stability test.
In FIG. 1, the appearance of a crystal (Example 1) having a melting start temperature of about 134° C. and a crystal (Reference Example 6) having a melting start temperature of about 130° C. before stability test and after stability tests (40° C. 2 weeks, 50° C. 2 weeks and 60° C. 2 weeks) is shown.

Where [1] appears, read: initial (before 40° C. one month stability test).

Regarding `Cc1c(OCC(F)(F)F)ccnc1C[S@@+]([O-])c1nc2ccccc2[nH]1` [Example 1, (R)-2-[[[3-methyl-4-(2,2,2-trifluoroethoxy)-2-pyridinyl]methyl]sulfinyl]-1H-benzimidazole], the “appearance after stability tests (FIG. 1)” value was “did not show changes in the appearance” and the “60° C. one month residual ratio” value turned out to be 99.7%.
In the case of `Cc1c(OCC(F)(F)F)ccnc1C[S@@+]([O-])c1nc2ccccc2[nH]1` [Example 2, (R)-2-[[[3-methyl-4-(2,2,2-trifluoroethoxy)-2-pyridinyl]methyl]sulfinyl]-1H-benzimidazole], the “60° C. one month residual ratio” value came out at 100%.
On the same count and under the same terms, for `Cc1c(OCC(F)(F)F)ccnc1C[S@@+]([O-])c1nc2ccccc2[nH]1` [Example 6, (R)-2-[[[3-methyl-4-(2,2,2-trifluoroethoxy)-2-pyridinyl]methyl]sulfinyl]-1H-benzimidazole] the value was 99.2%.
Turning to `Cc1c(OCC(F)(F)F)ccnc1C[S@@+]([O-])c1nc2ccccc2[nH]1` [Example 11, (R)-2-[[[3-methyl-4-(2,2,2-trifluoroethoxy)-2-pyridinyl]methyl]sulfinyl]-1H-benzimidazole], for the setting “40° C. one month”, the analogous material content is 0.2%, the appearance result was “almost white” and the content stood at 99.7%. In addition, under setting [1], the analogous material content came to 0.2%, the appearance entry is “almost white” and the content is listed as 99.5%.
For the molecule `Cc1c(OCC(F)(F)F)ccnc1C[S@@+]([O-])c1nc2ccccc2[nH]1` [Reference Example 3, (R)-2-[[[3-methyl-4-(2,2,2-trifluoroethoxy)-2-pyridinyl]methyl]sulfinyl]-1H-benzimidazole, reference compound], the “60° C. one month residual ratio” value worked out at 89.8%.
As to `Cc1c(OCC(F)(F)F)ccnc1C[S@@+]([O-])c1nc2ccccc2[nH]1` [Reference Example 6, (R)-2-[[[3-methyl-4-(2,2,2-trifluoroethoxy)-2-pyridinyl]methyl]sulfinyl]-1H-benzimidazole, reference compound], the “appearance after stability tests (FIG. 1)” value is recorded as “showed appreciably degraded appearance” and the “60° C. one month residual ratio” value stood at 93.8%.
`Cc1c(OCC(F)(F)F)ccnc1C[S@@+]([O-])c1nc2ccccc2[nH]1` [Reference Example 7, (R)-2-[[[3-methyl-4-(2,2,2-trifluoroethoxy)-2-pyridinyl]methyl]sulfinyl]-1H-benzimidazole, reference compound]: under “40° C. one month”, the analogous material content came to 4.6%, the appearance result is recorded as “brown” and the content is recorded as 93.8%. Further, under setting [1], the analogous material content was 0.1%, the appearance result was “almost white” and the content came out at 99.6%.
